Assay results from patent US12012408B2, “Purine compounds and method for the treatment of cancer” (THE ROYAL INSTITUTION FOR THE ADVANCEMENT OF …, priority 2018, dated 2024).

How the values were obtained:
Type in all cases: cell-based
[1] = tested on: MDA-MB-231 and BT-20 cells; experiment: Propidium iodide staining and flow cytometry of DNA content; details: treatment for 24 hours; FIG. 6C
Experimental: Cells were seeded into six-well plates and treated with the indicated concentration of SLLN-15 for 24 hours. After harvesting, cells were fixed in 80% methanol at −20° C. overnight. The fixed cells were washed twice with cold phosphate-buffered saline (PBS), incubated for 1 hour with 0.1% Triton X-100 and 0.5 μg/ml RNase A, and then stained with propidium iodide (PI) (Sigma) at a final concentration of 10 μg/ml in the dark at 4° C. until analysis. The fluorescent signal was detected through the FL-2 channel using FACSCalibur flow cytometry (Becton Dickson), and the proportion of DNA in various phases was analyzed using FCS Express version 3.0 (De novo Software, Glendale, California, USA)

[2] = tested on: MDA-MB-231 and BT-20 cells; experiment: Light microscopy of cell morphology; details: compared to control cells; more detached and shrunken cells
From the text: FIG. S1 represents the cell morphological changes of MDA-MB-231 and BT-20 upon SLLN-15 treatment as visualized by light microscopy.
Within our quest to develop effective novel anti-cancer drug for TNBCs, we designed and synthesized a library of compounds derived from seleno-purine scaffolds. A high-throughput screening of major classes of kinases and enzymes involved in carcinogenesis identified a 4-selenomorpholinophenyl- and tetrahydroselenophene-substituted diamino-purines, namely SLLN-15 (FIG. 1A), as a potent small molecule capable of inhibiting TNBC cells. […] Subsequent cell-based assays confirmed this small molecule to inhibit the proliferation of two TNBC cell lines, BT-20 and MDA-MB-231.

[3] = tested on: Aurora A, Aurora B, Aurora C in MDA-MB-231 and BT-20 cells; experiment: Western blot of cellular Aurora kinase phosphorylation and expression
Experimental: (§1) Sub-confluent cells were washed with PBS, lysed in RIPA buffer (50 mM Tris-HCl at pH7.5, 150 mM sodium chloride, 1% tritonX-100, 0.1% SDS, 2 mM EDTA and 25 mM sodium fluoride) supplemented with 1 mM PMSF and protease inhibitor cocktail (Roche) for 10 min on ice and centrifuged (13,000 rpm at 4° C. for 20 min) to separate cell lysate. Cell lysate (50 μg protein, as measured by the Bradford protein assay) was then added with SDS sample buffer (Tris at pH 6.8, 20% glycerol, 5% SDS, bromophenol blue and β-mercaptoethanol) and boiled for 5 min. Samples were then resolved through 13% SDS-PAGE gels, transferred to nitrocellulose membrane, blotted with specific first antibodies at different dilution in cold room overnight, and then amplified with horseradish peroxidase-conjugated secondary antibodies for 1 hour in room temperature and enhanced by chemiluminescence detection system.
To further evaluate cellular Aurora kinase inhibitory activity of SLLN-15, western blot analysis was carried out in both MDA-MB-231 and BT-20 cell lines. […] To gain further insight into the mechanism underlying the regulation of Aurora A and B by SLLN-15, we next examined whether Aurora A and B were degraded via the proteasome pathway.

[4] = tested on: autophagy (LC3) in MDA-MB-231 and BT-20 cells; experiment: Autophagy markers: LC3 western blot, LC3 puncta immunofluorescence, mCherry-GFP-LC3 flux
Experimental: as §1
Cells were grown on 18-mm cover glass, placed in 6-well culture plate for 24 hours, rinsed in PBS, fixed with 4% paraformaldehyde/PBS for 10 min, washed twice in PBS with 0.2% TritonX-100, blocked in PBS with 0.2% Triton X-100 containing 1% BSA (Bioshop) and incubated with primary antibodies overnight at 4° C. (all in 1/100 diluted in blocking solution). The cells were washed with PBS containing 0.2% TritonX-100 and subsequently incubated with Alexa Fluor 488-labelled, Alexa Fluor 594-labelled, or Alexa Fluor 647-labelled secondary antibodies (all were used at 1/500 dilution in blocking solution) for 1 hour in room temperature. The nuclei were stained with DAPI (0.1 μg/ml) for 5 min before mounted with aqueous mounting medium. Cells were imaged using WaveFX spinning disk confocal microscope system (Quorum Technologies INC.). Images shown are representative of three independent experiments.
In order to determine whether SLLN-15 affects autophagy in triple-negative breast cancer cells, we first investigated its effect on the formation of autophagosomes by detecting the conversion of LC3-I to lipidated LC3-II and the distribution of endogenous LC3 puncta, both classic markers of autophagy regulation (Klionsky D J et al. Guidelines for the use and interpretation of assays for monitoring autophagy (3rd edition) Autophagy 2016; 12:1-222). […] In order to visualize the induction of autophagy by SLLN-15, we then used transmission electron microscopy.
Distinguishing between autophagy inducers and inhibitors is a delicate task, since both cause a build-up of LC3-II and LC3-positive puncta (Mizushima N, et al. Methods in mammalian autophagy research Cell 2010; 140:313-26). Therefore, to further determine the role of SLLN-15 on autophagy, we next investigated its impact on autophagic flux using a tandem monomeric mCherry-GFP-tagged LC3. […] SLLN-15-induced autophagic flux was further examined in the presence or absence of the autophagosome-lysosome fusion inhibitor, chloroquine (CQ) (Mizushima N, et al. Methods in mammalian autophagy research Cell 2010; 140:313-26). […] This observation was further confirmed by detecting the number of LC3 puncta in SLLN-15-treated cells, as compared to SLLN-15 combined with CQ (FIG. 3D).

[5] = tested on: breast cancer cell lines MDA-MB-231, BT20, MDA-MD468, 4T1, MCF-7, SKBR3; experiment: Colony formation assay (long-term cell viability); details: MDA-MB-231, BT20, MDA-MD468, 4T1, MCF-7 (ER+, PR+), SKBR3 (Her2+); FIG. 1B
Experimental: The long-term effects of SLLN-15 on tumor cell growth were assessed using the colony formation assay. Cells were trypsinized and plated in triplicate wells in 12-well plate (500 cells/well). After six hours of incubation, cells were treated with the indicated concentrations of SLLN-15 or DMSO. 7 days after the cells plated and treated, they were washed and stained with a mixture of 0.05% w/v crystal violet and 6% v/v glutaraldehyde, and the colonies >100 μm in diameter were counted using a colony counter (Oxford Optronix Gelcount, Inc., Milton Park, Abingdon, UK).

[6] = tested on: MDA-MB-231 and BT-20 cells; experiment: BrdU labeling cell proliferation assay; details: FIG. 6D
Experimental: The proliferation effects of SLLN-15 were assessed using the bromodeoxyuridine (BrdU) Cell proliferation Assay Kit (Biovision). Cells were seeded at a density of 5000 cells/well in a 96-well plate and treated with SLLN-15 or rapamycin (Cayman chemical) as indicated concentration or DMSO for 24 hours. The plates were read on FLUOstar OPTIMA microplate reader (BMG Labtech, Ortenberg, Germany) at 450 nm. Assays were performed in triplicate on three independent experiments.

## c1nc2nc(Nc3ccc(N4CC[Se]CC4)cc3)nc(N[C@H]3CC[Se]C3)c2[nH]1 [SLLN-15]
[1]
  apoptosis (sub-G1 phase): no obvious apoptosis
  cells arrested in G2/M phase and polyploidy (>4N): significantly higher percentage
[2]
  cell morphology: induced obvious morphological changes
[3]; 1 μM, FIG. 7A
  phosphorylation of Aurora A at Thr288, Aurora B at Thr232, Aurora C at Thr198: strongly inhibited phosphorylation of both Aurora A at Thr288 and B at Thr232 but not Aurora C at Thr198
[3]; BT-20 cells, 6 hours post-treatment, FIG. 7C
  expression of Aurora A over time: downregulated the expression of Aurora A at earlier time points
[3]; dose-dependent, FIG. 7A
  Aurora A and Aurora B expression: decreased both Aurora A and Aurora B expression
[4]; FIG. S2
  expression level of p62/SQSTM1, Beclin1, Atg5 and Atg7: no changes in their expression levels were observed
[4]; MDA-MB-231 and BT-20 cells, FIGS. 3A and B
  autophagic flux, mCherry-GFP-tagged LC3: increased formation of yellow fluorescence (autophagosomes) and red fluorescence (autophagolysosomes)
[4]; SLLN-15 combined with chloroquine (CQ), compared to SLLN-15 alone, FIG. 3C
  LC3-II/LC3-I ratio: enhanced LC3-II/LC3-I ratio
[4]; combination of SLLN-15 with 3-methyladenine (3-MA), FIG. 5C
  LC3-II/I ratio: significantly decreases LC3-II/I ratio
[4]; dose-dependent, FIGS. 2A and B
  LC3-II conversion and LC3 puncta: increased LC3-II conversion and LC3 puncta
[5]
  colony formation abilities: equally inhibit the colony formation abilities
[6]
  anti-proliferation potency compared to rapamycin: more potent anti-proliferation agents
[6]; dose-dependent
  BrdU-positive cells: lower percentage of BrdU-positive cells
